The test system of one data set is HaCaT cell line. Description: Cell viability (cell toxicity) in HaCaT cell line. The data set is classed as cell-based, human. To be noted: FIG. 3A. The source says:
The inventors next examined the ability of the acetylcholinesterase-derived peptides, T30 and T15, to induce proliferation of the HaCaT cell line and also tested cell viability to determine cell toxicity of NBP-14, T15 and T30 to the HaCaT cell line.

In data set [1] the test system is keratinocyte cell line HaCaTs. Description: Intracellular calcium influx in keratinocyte cell line HaCaTs. Type of data set: cell-based, human. To be noted: in presence of T30, FIG. 2. From the text:
As described in the examples, the inventors performed intracellular calcium imaging and cell proliferation assays on the keratinocyte cell line, HaCaTs, a widely used and characterized model for human keratinocytes.
The inventors examined the ability of the acetylcholinesterase-derived linear peptides, T30 and T15, and the cyclic peptide NBP-14, to induce intracellular calcium influx into the keratinocyte cell line, and the results are shown in FIG. 2.
In general terms: A change in cytosolic calcium serves as a functional read-out for many receptors and channels.

Where a SMILES comes first, the peptide text is derived from it. Where no end group is shown, it is not given here.

Take NQFDHYSKQDRCSDL [T15]: the “cell viability / cytotoxic effects” value with HaCaT cell line is “do not show induced significant cytotoxic effects”.

As to KAEFHRWSSYMVHWKNQFDHYSKQDRCSDL [T30], the “cell viability / cytotoxic effects” value with HaCaT cell line is listed as “do not show induced significant cytotoxic effects”.

`CSCC[C@@H]1NC(=O)[C@H](Cc2ccc(O)cc2)NC(=O)[C@H](CO)NC(=O)[C@H](CO)NC(=O)[C@H](Cc2c[nH]c3ccccc23)NC(=O)[C@H](CCCNC(=N)N)NC(=O)[C@H](Cc2c[nH]cn2)NC(=O)[C@H](Cc2ccccc2)NC(=O)[C@H](CCC(=O)O)NC(=O)[C@H](C)NC(=O)[C@H](CCCCN)NC(=O)[C@H](Cc2c[nH]c3ccccc23)NC(=O)[C@H](Cc2c[nH]cn2)NC(=O)[C@H](C(C)C)NC1=O` [NBP-14] (cyclo(AEFHRWSSYMVHWK)): in data set [1], the “inhibition of T30-induced intracellular calcium influx” value is given as “significantly inhibit the effects of T30”. Besides, in the data set on HaCaT cell line, the “cell viability / cytotoxic effects” value is on record as “do not show induced significant cytotoxic effects”.

(Values after patent US20240207373A1, “CYCLIC PEPTIDES FROM THE C-TERMINUS OF ACETYLCHOLINESTERASE FOR TREATMENT OF SKIN DISORDERS AND FOR COSMETICAL USE” (priority 2020, published 2024).)
